Assays:
[1] = system: 4-1ST (human stomach cancer); assay: Tumor growth inhibitory effect (4-1ST subcutaneous solid tumor in nude mice); type: in vivo, human cells in SPF BALB/c-nu/nu male mice; conditions: tumor weight at 3 weeks vs non-treated
Description: (§1) Each of 4-1ST (human stomach cancer) and LC-6 (human lung cancer) cell lines grown subcutaneously as solid tumors in mice, were cut into rectangular pieces measuring 2 mm×2 mm×2 mm and were then transplanted subcutaneously into the right backs of SPF BALB/c-nu/nu male mice (7 week old) by use of a needle for transplantation. Using the equation shown below, the estimated volume of tumor was determined. When the estimated volume of tumor became 100-250 mm^3, the mice were allocated. To the grouped mice were administered various doses of Am 555S, 5-fluorouracil (5-FU) and Cisplatin (CDDP). […] More specifically, Am 555S was orally administered for three terms, each term consisting of five consecutive administration days and two non-administration days, 5-FU was administered intravenously through the tail vein for consecutive five days, and CDDP was administered once intravenously through the tail vein. After three weeks from the administration commencement, the mice were killed and the tumor growth inhibition rates were determined from the rate of tumor weights to that of the non-treated group, so as to determine the effect of growth inhibition of the tumor.

[2] = system: genes considered to be related to cancer metastasis and infiltration; conditions: as reported in the background art; concentration dependent manner; cited from earlier work
[3] = system: TMK-1 (human stomach cancer); assay: Experimental liver metastasis (TMK-1 human stomach cancer transplanted into the spleen of nude mice), increased life span; type: in vivo, human cells in SPF BALB/c-nu/nu male mice
Description: (§2) The effect of cancer metastasis inhibition was measured using the compounds Re 80, Am 55S and Am 555S.
(§3) KM12L4 (human colon cancer), TMK-1 (human stomach cancer) and A549 (human lung cancer) were each transplanted into the spleen of SPF BALB/c-nu/nu male mice (7 week old) in an amount of 1×10^6 cells/mouse. This test was conducted using experimental liver metastasis models.
(§4) The test procedure followed the modified Morikawa et al method (Cancer Research, 48, 1943-1948, (1988)). That is, the in vitro cultured cells were collected using 0.25% trypsin--0.02% EDTA or 0.02% EDTA and were then washed with physiological phosphate buffer saline. After the number of the cells was counted, the cells were diluted to 10^6 cells/50 μl. Next, each mouse was incised at their left abdomen after being anesthetized with 30 mg/kg of Nembutal and then the spleen was exposed. With a 28 gauge needle attached syringe, 50 μl of the above-prepared suspension containing 1×10^6 cells/50 μl was injected into the spleen. After two minutes, two portions of blood vessels of the spleen were ligated using a Liga clip and the spleen was removed. The incision site was then closed using a kyapher suture. Each of the compounds Re 80, Am 55S and Am 555S, which is an active ingredient of the cancer metastasis inhibitor of the invention, was suspended in 5% ethanol/olive oil or in 0.5% carboxymethyl cellulose/0.5% Tween 80 (Registered Trademark, produced by Nacalai tesque Co.) and was orally administered to each mouse from next day of the transplantation. In each case, the administration was conducted for three terms, each term consisting of five consecutive administration days and two non-administration days. Evaluation was conducted using the increased life span (ILS) in comparison to the control solvent group as an evaluation index. The ILS of all-trans-retinoic acid (ATRA), known to have cancer metastasis inhibiting properties, was also measured with the same test procedure.

[4] = system: KM12L4 (human colon cancer); assay: Experimental liver metastasis (KM12L4 human colon cancer transplanted into the spleen of nude mice), increased life span; type: in vivo, human cells in SPF BALB/c-nu/nu male mice
Description: as §2, §3, §4

[5] = system: A549 (human lung cancer); assay: Experimental liver metastasis (A549 human lung cancer transplanted into the spleen of nude mice), increased life span; type: in vivo, human cells in SPF BALB/c-nu/nu male mice
Description: as §2, §3, §4

[6] = system: experimental liver metastasis models (KM12L4, TMK-1, A549); assay: Effect on the experimental liver metastasis, overall (KM12L4, TMK-1 and A549 models); type: in vivo, human cells in SPF BALB/c-nu/nu male mice; conditions: for maximum ILS as compared with all-trans-retinoic acid (ATRA) / advantage over all-trans-retinoic acid (ATRA) in ILS: comparison with ATRA, in words; for inhibition of cancer metastasis: conclusion in words; for survival time of the mouse: conclusion in words from Table 1; for maximum value of the ILS as compared with the control group: maximum over cell lines and doses of Table 1
Description: as §2, §3, §4

[7] = Toxicity test, oral, 3 weeks; type: in vivo, SPF ICR male mice; conditions: consecutive 3 weeks, 6 mice
Description: SPF ICR male mice (5 week old) were used as divided into groups each consisting of 6 mice. To the group to be administered with the compound Re 80, the group to be administered with the compound Am 55S and the group to be administered with the compound Am 555S were orally administered 2 mg/kg of the compound Re 80 per day, 640 mg/kg of the compound Am 55S per day and 16 mg/kg of the compound Am 555S per day for consecutive 3 weeks, respectively.

[8] = system: 4-1ST (human stomach cancer) and LC-6 (human lung cancer); assay: Tumor growth inhibitory effect, overall (4-1ST and LC-6); type: in vivo, human cells in SPF BALB/c-nu/nu male mice
Description: as §1

[9] = system: LC-6 (human lung cancer); assay: Tumor growth inhibitory effect (LC-6 subcutaneous solid tumor in nude mice); type: in vivo, human cells in SPF BALB/c-nu/nu male mice; conditions: tumor weight at 3 weeks vs non-treated
Description: as §1

[10] = 2 mg/kg oral, 3 terms of 5 days on/2 off
[11] = 8 mg/kg oral, 3 terms of 5 days on/2 off

Compound: O=c1[nH]cc(F)c(=O)[nH]1 [5-FU, 5-fluorouracil, reference compound]
- Tumor Growth Inhibition Rate ([1]; 19 mg/kg i.v. (tail vein), consecutive five days): 50.9

Compound: CC1=C(/C=C/C(C)=C/C=C/C(C)=C/C(=O)O)C(C)(C)CCC1 [ATRA, all-trans-retinoic acid, reference compound]
- expression of genes related to cancer metastasis and infiltration [2]: can prevent the expression of these genes to interdict metastasis and infiltration of cancer cells in concentration dependent manner
- Increased life span (ILS %) ([3]; TMK-1, 8 mg/kg, same test procedure, vs control solvent group): 22%

Compound: C[Si](C)(C)c1cc(NC(=O)c2ccc(C(=O)O)cc2)cc([Si](C)(C)C)c1 [Am 55S, 4-[3,5-bis(trimethylsilyl)phenylcarbamoyl] benzoic acid]
- Increased life span (ILS %) ([4]; po, 100 mg/kg, 120 h): 14%
- Increased life span (ILS %) ([4]; po, 300 mg/kg, 120 h): 42%
- Increased life span (ILS %) ([5]; po, 100 mg/kg, 120 h): 37%
- Increased life span (ILS %) ([5]; po, 300 mg/kg, 120 h): 6%
- maximum ILS as compared with all-trans-retinoic acid (ATRA) [6]: higher
- inhibition of cancer metastasis [6]: effective to inhibit cancer metastasis
- survival time of the mouse [6]: remarkably prolonged
- maximum value of the ILS as compared with the control group [6]: 42%
- death ([7]; 640 mg/kg per day oral): No death occurred
- notable side effect ([7]; 640 mg/kg per day oral): no notable side effect occurred
- Increased life span (ILS %) ([3]; po, 100 mg/kg, 120 h): 39%
- Increased life span (ILS %) ([3]; po, 300 mg/kg, 120 h): 30%

Compound: C[Si](C)(C)c1cc(C(=O)Nc2ccc(C(=O)O)cc2)cc([Si](C)(C)C)c1 [Am 555S, 4-[3,5-bis(trimethylsilyl)phenylcarboxamide] benzoic acid]
- Increased life span (ILS %) ([4]; KM12L4, 4 mg/kg oral, 3 terms of 5 days on/2 off, vs control solvent group): 5%
- Increased life span (ILS %) ([4]; KM12L4, 16 mg/kg oral, 3 terms of 5 days on/2 off, vs control solvent group): 22%
- Increased life span (ILS %) ([5]; A549, 4 mg/kg oral, 3 terms of 5 days on/2 off, vs control solvent group): 57%
- Increased life span (ILS %) ([5]; A549, 16 mg/kg oral, 3 terms of 5 days on/2 off, vs control solvent group): 30%
- advantage over all-trans-retinoic acid (ATRA) in ILS [6]: marked advantages
- maximum ILS as compared with all-trans-retinoic acid (ATRA) [6]: higher
- inhibition of cancer metastasis [6]: effective to inhibit cancer metastasis
- survival time of the mouse [6]: remarkably prolonged
- maximum value of the ILS as compared with the control group [6]: 71%
- death ([7]; 16 mg/kg per day oral): No death occurred
- notable side effect ([7]; 16 mg/kg per day oral): no notable side effect occurred
- tumor growth inhibition rates as compared with 5-FU and CDDP ([8]; comparison in words from Table 2): extremely low tumor growth inhibition rates
- tumor growth inhibition activity ([8]; conclusion in words from Table 2): no tumor growth inhibition activity
- Increased life span (ILS %) ([3]; TMK-1, 4 mg/kg oral, 3 terms of 5 days on/2 off, vs control solvent group): 59%
- Increased life span (ILS %) ([3]; TMK-1, 16 mg/kg oral, 3 terms of 5 days on/2 off, vs control solvent group): 71%
- Tumor Growth Inhibition Rate [1, 10]: 2.7
- Tumor Growth Inhibition Rate ([1]; 4 mg/kg oral, 3 terms of 5 days on/2 off): -4.9
- Tumor Growth Inhibition Rate [1, 11]: 8.7
- Tumor Growth Inhibition Rate [9, 10]: 2.7
- Tumor Growth Inhibition Rate [9, 11]: 13.7

Compound: [NH2][Pt]([NH2])([Cl])[Cl] [CDDP, Cisplatin, reference compound]
- Tumor Growth Inhibition Rate ([9]; 7 mg/kg i.v. (tail vein), once): 52.3

Compound: CC1(C)CCC(C)(C)c2cc(C(=O)C=C(O)c3ccc(C(=O)O)cc3)c(O)cc21 [Re 80, 4-[1-hydroxy-3-oxo-3-(5,6,7,8-tetrahydro-5,5,8,8-tetramethyl-3-hydroxy-2-naphthalenyl)-1-propenyl] benzoic acid]
- Increased life span (ILS %) ([4]; po, 0.5 mg/kg, 120 h): 23%
- Increased life span (ILS %) ([4]; po, 2 mg/kg, 120 h): 34%
- Increased life span (ILS %) ([5]; po, 0.5 mg/kg, 120 h): 19%
- Increased life span (ILS %) ([5]; po, 2 mg/kg, 120 h): 22%
- advantage over all-trans-retinoic acid (ATRA) in ILS [6]: marked advantages
- maximum ILS as compared with all-trans-retinoic acid (ATRA) [6]: higher
- inhibition of cancer metastasis [6]: effective to inhibit cancer metastasis
- survival time of the mouse [6]: remarkably prolonged
- maximum value of the ILS as compared with the control group [6]: 50%
- death ([7]; 2 mg/kg per day oral): No death occurred
- notable side effect ([7]; 2 mg/kg per day oral): no notable side effect occurred
- Increased life span (ILS %) ([3]; po, 0.5 mg/kg, 120 h): 36%
- Increased life span (ILS %) ([3]; po, 2 mg/kg, 120 h): 50%

From patent US5750515A, “Cancer metastasis inhibitor” (Taiho Pharmaceutical Co., Ltd., priority 1995, dated 1998)
